Measured values published in patent publication US20240025875A1, “A COMPOUND AS A THYROID HORMONE BETA RECEPTOR AGONIST AND USE THEREOF” (SUNSHINE LAKE PHARMA CO., LTD., priority 2020, published 2024).

Columns and labels:
TRα = target: T1, TRα (Homo sapiens, UniProt P10827); assay: LanthaScreen TR-FRET Thyroid Receptor alfa Coactivator Assay (in vitro binding activity); details: TR alfa-LBD
T1 construct: 5 μL of 4×TR beta/alfa-LBD; purchased Invitrogen PV4687
Method: (§1) 2. Detection of the Binding Activity of the Compound of the Present Invention to TRα or TRβ In Vitro
(§2) Test Materials • LanthaScreen TR-FRET Thyroid Receptor beta Coactivator Assay kit was purchased from Invitrogen, Cat. No. PV4686; • LanthaScreen TR-FRET Thyroid Receptor alfa Coactivator Assay kit was purchased from Invitrogen, Cat. No. PV4687.
(§3) The method was experimented with LanthaScreen TR-FRET Thyroid Receptor beta/alfa Coactivator Assay kit. The test compound was dissolved in DMSO and diluted 3 times to a total of 10 concentrations, and then diluted with TR-FRET Coregulator Buffer C in the kit to form a solution containing 2% DMSO, 10 μL of the solution containing 2% DMSO was taken into a 384-well plate, then 5 μL of 4×TR beta/alfa-LBD, 5 μL of a mixture containing 0.4 μM fluorescein-SRC2-2 and 8 nM Tb anti-GST antibody were added into each well, mixed thoroughly, and incubated at room temperature for 1 h in the dark. After 1 h, BMG LABTECH's PHERAstar FSX microplate reader was used to read the fluorescence value (RFU) at […]. The TR-FRET ratio was calculated by dividing the emission signal at 520 nm by the emission signal at 495 nm. Graph Pad Prism 5 software was used to draw the curve and calculate the EC50 value. The in vitro binding activity test results of some of the compounds of the examples of the present invention are shown in Table 1 below.

TRβ = target: T2, TRβ (Homo sapiens, UniProt P10828); assay: LanthaScreen TR-FRET Thyroid Receptor beta Coactivator Assay (in vitro binding activity); details: TR beta-LBD
T2 construct: 5 μL of 4×TR beta/alfa-LBD; purchased Invitrogen PV4686
T2 sequence (P10828 217-461 limits assumed): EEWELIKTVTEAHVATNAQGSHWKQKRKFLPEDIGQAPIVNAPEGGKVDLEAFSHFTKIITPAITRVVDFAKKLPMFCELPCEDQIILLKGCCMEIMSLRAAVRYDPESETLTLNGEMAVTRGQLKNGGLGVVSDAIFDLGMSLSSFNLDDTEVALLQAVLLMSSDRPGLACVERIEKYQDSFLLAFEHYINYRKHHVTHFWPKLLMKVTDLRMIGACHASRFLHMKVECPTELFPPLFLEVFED
Method: as §1, §2, §3

T1 sequence (P10827 163-410 isoform P10827-2 limits assumed, other chains not shown): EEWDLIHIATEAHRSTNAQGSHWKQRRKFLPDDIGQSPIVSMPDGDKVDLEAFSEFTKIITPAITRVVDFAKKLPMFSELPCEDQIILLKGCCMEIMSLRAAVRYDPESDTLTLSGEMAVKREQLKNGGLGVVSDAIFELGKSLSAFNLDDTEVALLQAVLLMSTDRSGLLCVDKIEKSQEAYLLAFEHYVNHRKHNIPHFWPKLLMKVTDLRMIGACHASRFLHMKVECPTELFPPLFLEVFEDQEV

Row | Structure (SMILES) | EC50 (TRα) [µM] | EC50 (TRβ) [µM]
1 | Cc1ccc(N2CCc3cc(Oc4c(Cl)cc(-n5nc(C#N)c(=O)[nH]c5=O)cc4Cl)ccc3C2=O)cc1 [Example 27, 2-(3,5-dichloro-4-((1-oxo-2-(p-tolyl)-1,2,3,4-tetrahydroisoquinolin-6-yl)oxy)phenyl)-3,5-dioxo-2,3,4,5-tetrahydro-1,2,4-triazine-6-carbonitrile] | > 100 | 0.14
2 | N#Cc1nn(-c2cc(Cl)c(Oc3ccc4c(c3)CCN(c3ccc(F)cc3)C4=O)c(Cl)c2)c(=O)[nH]c1=O [Example 28g] | > 100 | 0.128
3 | O=C1c2ccc(Oc3c(Cl)cc(-n4ncc(=O)[nH]c4=O)cc3Cl)cc2CCN1Cc1ccc(F)c(F)c1 [Example 30, 2-(3,5-dichloro-4-((2-(3,4-difluorobenzyl)-1-oxo-1,2,3,4-tetrahydroisoquinolin-6-yl)oxy)phenyl)-1,2,4-triazine-3,5(2H,4H)-dione] | 0.093 | 0.0062
4 | N#Cc1nn(-c2cc(Cl)c(Oc3ccc4c(c3)CCN(Cc3ccc(F)c(F)c3)C4=O)c(Cl)c2)c(=O)[nH]c1=O [Example 30d, 2-(3,5-dichloro-4-((2-(3,4-difluorobenzyl)-1-oxo-1,2,3,4-tetrahydroisoquinolin-6-yl)oxy)phenyl)-3,5-dioxo-2,3,4,5-tetrahydro-1,2,4-triazine-6-carbonitrile] | > 100 | 0.065
5 | O=C1c2ccc(Oc3c(Cl)cc(-n4ncc(=O)[nH]c4=O)cc3Cl)cc2CCN1Cc1cccc(F)c1 [Example 31, 2-(3,5-dichloro-4-((2-(3-fluorobenzyl)-1-oxo-1,2,3,4-tetrahydroisoquinolin-6-yl)oxy)phenyl)-1,2,4-triazine-3,5(2H,4H)-dione] | 0.107 | < 0.0046
6 | N#Cc1nn(-c2cc(Cl)c(Oc3ccc4c(c3)CCN(Cc3cccc(F)c3)C4=O)c(Cl)c2)c(=O)[nH]c1=O [Example 31d, 2-(3,5-dichloro-4-((2-(3-fluorobenzyl)-1-oxo-1,2,3,4-tetrahydroisoquinolin-6-yl)oxy)phenyl)-3,5-dioxo-2,3,4,5-tetrahydro-1,2,4-triazine-6-carbonitrile] | > 100 | 0.034
7 | O=C1c2ccc(Oc3c(Cl)cc(-n4ncc(=O)[nH]c4=O)cc3Cl)cc2CCN1Cc1cc(F)cc(F)c1 [Example 32, 2-(3,5-dichloro-4-((2-(3,5-difluorobenzyl)-1-oxo-1,2,3,4-tetrahydroisoquinolin-6-yl)oxy)phenyl)-1,2,4-triazine-3,5(2H,4H)-dione] | 0.181 | 0.0046
8 | N#Cc1nn(-c2cc(Cl)c(Oc3ccc4c(c3)CCN(Cc3cc(F)cc(F)c3)C4=O)c(Cl)c2)c(=O)[nH]c1=O [Example 32d, 2-(3,5-Dichloro-4-((2-(3,5-difluorobenzyl)-1-oxo-1,2,3,4-tetrahydroisoquinolin-6-yl)oxy)phenyl)-3,5-dioxo-2,3,4,5-tetrahydro-1,2,4-triazine-6-carbonitrile] | > 100 | 0.054
9 | O=C1c2ccc(Oc3c(Cl)cc(-n4ncc(=O)[nH]c4=O)cc3Cl)cc2CCN1Cc1ccccc1F [Example 33, 2-(3,5-dichloro-4-((2-(2-fluorobenzyl)-1-oxo-1,2,3,4-tetrahydroisoquinolin-6-yl)oxy)phenyl)-1,2,4-triazine-3,5(2H,4H)-dione] | 0.156 | 0.017
10 | N#Cc1nn(-c2cc(Cl)c(Oc3ccc4c(c3)CCN(Cc3ccccc3F)C4=O)c(Cl)c2)c(=O)[nH]c1=O [Example 33d, 2-(3,5-Dichloro-4-((2-(2-fluorobenzyl)-1-oxo-1,2,3,4-tetrahydroisoquinolin-6-yl)oxy)phenyl)-3,5-dioxo-2,3,4,5-tetrahydro-1,2,4-triazine-6-carbonitrile] | > 100 | 0.11
11 | O=C1c2ccc(Oc3c(Cl)cc(-n4ncc(=O)[nH]c4=O)cc3Cl)cc2CCN1Cc1ccc(F)c(Cl)c1 [Example 35, 2-(3,5-dichloro-4-((2-(3-chloro-4-fluorobenzyl)-1-oxo-1,2,3,4-tetrahydroisoquinolin-6-yl)oxy)phenyl)-1,2,4-triazine-3,5(2H,4H)-dione] | 0.092 | < 0.0046
12 | N#Cc1nn(-c2cc(Cl)c(Oc3ccc4c(c3)CCN(Cc3ccc(F)c(Cl)c3)C4=O)c(Cl)c2)c(=O)[nH]c1=O [Example 35d, 2-(3,5-dichloro-4-((2-(3-chloro-4-fluorobenzyl)-1-oxo-1,2,3,4-tetrahydroisoquinolin-6-yl)oxy)phenyl)-3,5-dioxo-2,3,4,5-tetrahydro-1,2,4-triazine-6-carbonitrile] | > 100 | 0.08
13 | COc1cccc(CN2CCc3cc(Oc4c(Cl)cc(-n5ncc(=O)[nH]c5=O)cc4Cl)ccc3C2=O)c1 [Example 36, 2-(3,5-dichloro-4-((2-(3-methoxybenzyl)-1-oxo-1,2,3,4-tetrahydroisoquinolin-6-yl)oxy)phenyl)-1,2,4-triazine-3,5(2H,4H)-dione] | 0.079 | < 0.0046
14 | N#Cc1nn(-c2cc(Cl)c(Oc3ccc4c(c3)CCN(CC3CC3)C4=O)c(Cl)c2)c(=O)[nH]c1=O [Example 38, 2-(3,5-dichloro-4-((2-(cyclopropylmethyl)-1-oxo-1,2,3,4-tetrahydroisoquinolin-6-yl)oxy)phenyl)-3,5-dioxo-2,3,4,5-tetrahydro-1,2,4-triazine-6-carbonitrile] | < 0.046 | < 0.0046
15 | N#Cc1nn(-c2cc(Cl)c(Oc3ccc4c(c3)CCN(CO)C4=O)c(Cl)c2)c(=O)[nH]c1=O [Example 39, 2-(3,5-dichloro-4-((2-(hydroxymethyl)-1-oxo-1,2,3,4-tetrahydroisoquinolin-6-yl)oxy)phenyl)-3,5-dioxo-2,3,4,5-tetrahydro-1,2,4-triazine-6-carbonitrile] | > 100 | 0.472
16 | Cc1ccc(F)cc1CN1CCc2cc(Oc3c(Cl)cc(-n4ncc(=O)[nH]c4=O)cc3Cl)ccc2C1=O [Example 40, 2-(3,5-dichloro-4-((2-(5-fluoro-2-methylbenzyl)-1-oxo-1,2,3,4-tetrahydroisoquinolin-6-yl)oxy)phenyl)-1,2,4-triazine-3,5(2H,4H)-dione] | 0.179 | < 0.0046
17 | Cc1ccc(F)cc1CN1CCc2cc(Oc3c(Cl)cc(-n4nc(C#N)c(=O)[nH]c4=O)cc3Cl)ccc2C1=O [Example 40d, 2-(3,5-dichloro-4-((2-(5-fluoro-2-methylbenzyl)-1-oxo-1,2,3,4-tetrahydroisoquinolin-6-yl)oxy)phenyl)-3,5-dioxo-2,3,4,5-tetrahydro-1,2,4-triazine-6-carbonitrile] | > 100 | 0.035
18 | O=C1c2ccc(Oc3c(Cl)cc(-n4ncc(=O)[nH]c4=O)cc3Cl)cc2CCN1c1ccccn1 [Example 47] | 0.161 | 0.039
19 | N#Cc1nn(-c2cc(Cl)c(Oc3ccc4c(c3)CCN(c3ccccn3)C4=O)c(Cl)c2)c(=O)[nH]c1=O [Example 47f, 2-(3,5-dichloro-4-((1-oxo-2-(pyridin-2-yl)-1,2,3,4-tetrahydroisoquinolin-6-yl)oxy)phenyl)-3,5-dioxo-2,3,4,5-tetrahydro-1,2,4-triazine-6-carbonitrile] | > 100 | 0.214
20 | O=C1c2ccc(Oc3c(Cl)cc(-n4ncc(=O)[nH]c4=O)cc3Cl)cc2CCN1c1ccncc1 [Example 48, 2-(3,5-dichloro-4-((1-oxo-2-(pyridin-4-yl)-1,2,3,4-tetrahydroisoquinolin-6-yl)oxy)phenyl)-1,2,4-triazine-3,5(2H,4H)-dione] | 0.558 | 0.065
